Test results as given in patent US20220184071A1, “GEPOTIDACIN FOR USE IN THE TREATMENT OF BACTERIAL URINARY TRACT INFECTIONS” (GlaxoSmithKline Intellectual Property Development Limited, priority 2019, published 2022).
Values after ≈ are worked out from the molar mass of the structure shown.

How the values were obtained:
[1] = test system: Enterobacter (Enterobacter aerogenes, Enterobacter cloacae complex); experiment: MIC by CLSI agar dilution, Example 1 Method 2; type: cell-based; settings: n = 55
Experimental: (§1) Antimicrobial activity was determined in a second study by […] using the CLSI recommended procedure in serial two-fold dilutions and the minimum inhibitory concentration (MIC) was determined as the lowest concentration of the compound that inhibited visible growth.
(§2) MICs were determined according to CLSI agar dilution guidelines.

[2] = test system: Klebsiella (Klebsiella oxytoca, Klebsiella variicola, Klebsiella pneumoniae); experiment: MIC by CLSI agar dilution, Example 1 Method 2; type: cell-based; settings: n = 55
Experimental: as §1, §2

[3] = test system: Klebsiella oxytoca, Klebsiella variicola, Proteus hauseri and Proteus peneri; experiment: MIC by CLSI agar dilution, Example 1 Method 2; type: cell-based; settings: in each case against at least one isolate
Experimental: as §1, §2

[4] = test system: Proteus (Proteus mirabilis, Proteus penneri, Proteus hauseri); experiment: MIC by CLSI agar dilution, Example 1 Method 2; type: cell-based; settings: n = 56
Experimental: as §1, §2

[5] = test system: Shigella boydii; experiment: MIC by CLSI agar dilution, Example 1 Method 2; type: cell-based; settings: n=3
Experimental: as §1, §2

[6] = test system: Shigella flexneri; experiment: MIC by CLSI agar dilution, Example 1 Method 2; type: cell-based; settings: n=24
Experimental: as §1, §2

[7] = test system: Shigella sonnei; experiment: MIC by CLSI agar dilution, Example 1 Method 2; type: cell-based; settings: n=64
Experimental: as §1, §2

[8] = test system: Shigella; experiment: MIC by CLSI agar dilution, Example 1 Method 2; type: cell-based
Experimental: as §1, §2

[9] = test system: S. saprophyticus; experiment: Phase IIa baseline uropathogen susceptibility testing (CLSI broth microdilution); type: cell-based; settings: Staphylococcus saprophyticus; Participant 8; read-out: GEP MIC
Experimental: (§3) This phase IIa single center study evaluated the safety, tolerability, pharmacokinetics, and efficacy of oral gepotidacin 1500 mg BID for 5 days in female subjects with acute cystitis. Clean catch mid-stream urine specimens were obtained for quantitative culture by standard methods. Urine samples were taken from all participants pre-treatment (baseline) and at all post-baseline visits. All urine samples were sent to a central laboratory (PPD Global Clinical Laboratories, Highland Heights, Ky., USA) for Gram stain, quantitative culture, pathogen identification and susceptibility testing. See FIG. 1 for participant disposition and study outline.
(§4) Susceptibility testing by CLSI broth microdilution and gradient diffusion (fosfomycin only) was conducted (CLSI, 2015, Methods for dilution antimicrobial susceptibility tests for bacteria that grow aerobically; approved standard-tenth edition; and CLSI, 2018. Performance Standards for Antimicrobial Susceptibility Testing; Twenty-seventh Informational Supplement M100-S28). Inclusion in the microbiological intent-to-treat population (micro-ITT), required growth of a qualifying baseline uropathogen (≥10^5 CFU/mL). See FIG. 2 for the baseline algorithm.

[10] = test system: qualifying uropathogens; experiment: as above; type: cell-based; settings: 8 qualifying baseline uropathogens
Experimental: as §3, §4

[11] = test system: K. pneumoniae; experiment: as above; type: cell-based, Klebsiella pneumoniae; settings: Klebsiella pneumoniae; Participant 7; read-out: GEP MIC
Experimental: as §3, §4

[12] = test system: E. coli ALL; experiment: Neutropenic mouse kidney infection (pyelonephritis/UTI) model PK/PD; type: in vivo; settings: Strain ALL
Experimental: PK and PD studies using gepotidacin were conducted in murine (male CD-1 mice) thigh and kidney infections. The administered doses ranged from 1 to 200 mg/kg SC every 6 hours starting 1h post infection. Infected tissues were evaluated for bacterial burden at 24 h post infection (baseline controls at 1 h post infection).
Efficacy was determined against E. coli ALL, 997577, ATCC25922, IR5 and NCTC13441 (MICs of 1 to 4 μg/mL) in thigh-infected neutropenic (I−) mice and against E. coli ALL in kidney-infected immunocompetent (I+) and I− mice. The PopPK model was used to determine GEP exposures associated with efficacy. PK-PD analyses were conducted using Phoenix WinNonLin 6.3 (Pharsight). The change in login colony forming units (CFU) from baseline were correlated with free drug (f) AUC:MIC using an inhibitory model from the Phoenix library, and model parameter values for each isolate were used to calculate the plasma fAUC:MIC associated with stasis, 1- or 2-login reductions in CFU.
PD studies were conducted using thigh and/or kidney infection models in neutropenic or competent mice (N=5/group). Mice were infected with a bacterial suspension in log phase: 100 μL in the left thigh muscle or 50 μL in each of both kidneys (100 μl total). Final inocula across all isolates were 6.0 to 7.0 login CFU/mouse. Dose-ranging studies were conducted with 5 isolates (see Table 1). Starting 1 hr after infection, GEP was given SC (0.2 mL/mouse) at discrete doses of 1-200 mg/kg every 6 hours (q6) for a 24-hour period (4 doses in total). Mice were euthanized 24 hr after start of therapy (6 hr after the last dose), and infected thighs or kidneys were processed to determine viable bacterial counts (CFU). Baseline CFU were obtained from untreated mice at 1 hr post infection and growth control CFU from saline-treated mice at 24 hr.
NCA analyses were conducted with the simulated data. […]

Question: O=c1ccc2ncc(=O)n3c2n1C[C@H]3CN1CCC(NCc2cc3c(cn2)OCCC3)CC1 [gepotidacin, (2R)-2-({4-[(3,4-dihydro-2H-pyrano[2,3-c]pyridin-6-ylmethyl)amino]-1-piperidinyl}methyl)-1,2-dihydro-3H,8H-2a,5,8a-triazaacenaphthylene-3,8-dione] was tested. Which MIC50 [1] did it give?
Answer: 16 µg/mL (≈ 35.7 µM)

Question: And the MIC90 [1]?
Answer: 32 µg/mL (≈ 71.3 µM)

Question: What about the “Number of Isolates at Gepotidacin MIC 2 mg/L” value [1] of the same compound?
Answer: 3

Question: And the “Number of Isolates at Gepotidacin MIC 4 mg/L” value [1]?
Answer: 12

Question: And the “Number of Isolates at Gepotidacin MIC 8 mg/L” value [1]?
Answer: 7

Question: And the “Number of Isolates at Gepotidacin MIC ≤0.25 mg/L” value [1]?
Answer: 1

Question: And the “Number of Isolates at Gepotidacin MIC ≥16 mg/L” value [1]?
Answer: 32

Question: What about the MIC50 [2] of the same compound?
Answer: 16 µg/mL (≈ 35.7 µM)

Question: And the MIC90 [2]?
Answer: 64 µg/mL (≈ 143 µM)

Question: What about the “Number of Isolates at Gepotidacin MIC 1 mg/L” value [2] of the same compound?
Answer: 1

Question: What about the “Number of Isolates at Gepotidacin MIC 4 mg/L” value [2] of the same compound?
Answer: 6

Question: And the “Number of Isolates at Gepotidacin MIC 8 mg/L” value [2]?
Answer: 14

Question: What about the “Number of Isolates at Gepotidacin MIC ≥16 mg/L” value [2] of the same compound?
Answer: 34

Question: And the MIC [3]?
Answer: ≥ 4 µg/mL

Question: And the MIC50 [4]?
Answer: 8 µg/mL (≈ 17.8 µM)

Question: And the MIC90 [4]?
Answer: 32 µg/mL (≈ 71.3 µM)

Question: And the “Number of Isolates at Gepotidacin MIC 0.5 mg/L” value [4]?
Answer: 3

Question: What about the “Number of Isolates at Gepotidacin MIC 1 mg/L” value [4] of the same compound?
Answer: 4

Question: What about the “Number of Isolates at Gepotidacin MIC 2 mg/L” value [4] of the same compound?
Answer: 11

Question: What about the “Number of Isolates at Gepotidacin MIC 4 mg/L” value [4] of the same compound?
Answer: 9

Question: And the “Number of Isolates at Gepotidacin MIC 8 mg/L” value [4]?
Answer: 10

Question: And the “Number of Isolates at Gepotidacin MIC ≥16 mg/L” value [4]?
Answer: 19

Question: What about the MIC [5] of the same compound?
Answer: 2 µg/mL (≈ 4.46 µM)

Question: And the MIC90 [6]?
Answer: 2 µg/mL (≈ 4.46 µM)

Question: What about the MIC90 [7] of the same compound?
Answer: 2 µg/mL (≈ 4.46 µM)

Question: And the “% of the tested isolates inhibited at ≤2 mg/L” value ([8]; 91 isolates)?
Answer: 95.6%

Question: And the “% of the tested isolates inhibited at ≤8 mg/L” value ([8]; 91 isolates)?
Answer: 100%

Question: And the MICs ranged ([8]; 91 isolates)?
Answer: 0.125 to 8 mg/L

Question: What about the MIC50 ([8]; Shigella, n = 91) of the same compound?
Answer: 1 µg/mL (≈ 2.23 µM)

Question: What about the MIC90 ([8]; Shigella, n = 91) of the same compound?
Answer: 2 µg/mL (≈ 4.46 µM)

Question: And the “Number of Isolates at Gepotidacin MIC 0.5 mg/L” value ([8]; n = 91)?
Answer: 18

Question: What about the “Number of Isolates at Gepotidacin MIC 1 mg/L” value ([8]; n = 91) of the same compound?
Answer: 36

Question: And the “Number of Isolates at Gepotidacin MIC 2 mg/L” value ([8]; n = 91)?
Answer: 19

Question: What about the “Number of Isolates at Gepotidacin MIC 4 mg/L” value ([8]; n = 91) of the same compound?
Answer: 3

Question: And the “Number of Isolates at Gepotidacin MIC 8 mg/L” value ([8]; n = 91)?
Answer: 1

Question: And the “Number of Isolates at Gepotidacin MIC ≤0.25 mg/L” value ([8]; n = 91)?
Answer: 14

Question: What about the “Effect of levofloxacin non-susceptibility or QRDR substitutions in GyrA and ParC on activity” value ([8]; where data was available) of the same compound?
Answer: unaffected

Question: What about the MIC [9] of the same compound?
Answer: 0.06 µg/mL (≈ 0.134 µM)

Question: And the “Gepotidacin MICs ranged” value [10]?
Answer: 0.06 to 4 µg/mL

Question: What about the MIC [11] of the same compound?
Answer: 4 µg/mL (≈ 8.92 µM)

Question: And the “Daily fAUC/MIC for 1-log Drop” value [12]?
Answer: 8.7

Question: And the “Daily fAUC/MIC for 2-log Drop” value [12]?
Answer: 15.6

Question: And the “Daily fAUC/MIC for Stasis” value [12]?
Answer: 4.3
